The structures appear in SMILES notation. Like-named read-outs stand apart in the source and are kept apart here.

The target in one data set is T1, human H3 receptor (Homo sapiens, UniProt Q9Y5N1).
T1 construct: expressed in transfected cells
Put plainly: Human H3 radioligand binding ([3H]-N-alpha-methylhistamine, SPA). The note with it: membranes of CHO cells expressing human H3. An outline of the steps: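 Membranes from H3-expressing cells (10 μg protein/well) in 50 mM Tris HCl pH 7.4, 5 mM MgCl2, 0.1% BSA with ~1 nM [3H]-N-alpha-methylhistamine and compound (0.01 nM–30 μM), SPA beads, 4 h, room temperature, dark. Non-specific binding defined with 10 μM clobenpropit; bound radioligand read by scintillation counting.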

In data set [1] the target is T2, rat histamine H3 receptor (Rattus norvegicus, UniProt Q9QYN8).
T2 construct: encoding the entire 445-amino-acid rat histamine H3 receptor; expressed in transfected cells
T2 sequence (Q9QYN8 whole entry): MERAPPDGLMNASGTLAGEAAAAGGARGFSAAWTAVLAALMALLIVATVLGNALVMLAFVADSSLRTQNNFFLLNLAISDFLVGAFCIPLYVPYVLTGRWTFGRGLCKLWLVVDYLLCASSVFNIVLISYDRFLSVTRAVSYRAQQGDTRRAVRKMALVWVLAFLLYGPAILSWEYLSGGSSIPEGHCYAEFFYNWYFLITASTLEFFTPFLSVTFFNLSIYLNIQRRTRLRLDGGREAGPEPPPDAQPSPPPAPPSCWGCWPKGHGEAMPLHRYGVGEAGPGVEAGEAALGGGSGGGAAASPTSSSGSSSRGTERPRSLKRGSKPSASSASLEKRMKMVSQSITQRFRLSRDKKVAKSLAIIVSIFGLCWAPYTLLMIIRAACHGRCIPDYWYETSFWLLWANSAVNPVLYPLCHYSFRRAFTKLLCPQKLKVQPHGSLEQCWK
The data set is described as follows: Rat H3 radioligand binding ([3H]-N-alpha-methylhistamine, SPA). In outline: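 Membranes from CHO-A3 cells stably expressing full-length rat H3 receptor (445 aa) incubated with ~1 nM [3H]-N-alpha-methylhistamine and compound (0.01 nM–30 μM) in 50 mM Tris HCl pH 7.4, 5 mM MgCl2, 0.1% BSA, 4 h, room temperature; SPA bead read-out. Non-specific binding defined with 10 μM clobenpropit.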

[2] abbreviates: membranes of CHO-A3 cells expressing rat H3, [3H]-N-alpha-methylhistamine, read-out: Rat H3 Ki.

T1 sequence (Q9Y5N1 whole entry): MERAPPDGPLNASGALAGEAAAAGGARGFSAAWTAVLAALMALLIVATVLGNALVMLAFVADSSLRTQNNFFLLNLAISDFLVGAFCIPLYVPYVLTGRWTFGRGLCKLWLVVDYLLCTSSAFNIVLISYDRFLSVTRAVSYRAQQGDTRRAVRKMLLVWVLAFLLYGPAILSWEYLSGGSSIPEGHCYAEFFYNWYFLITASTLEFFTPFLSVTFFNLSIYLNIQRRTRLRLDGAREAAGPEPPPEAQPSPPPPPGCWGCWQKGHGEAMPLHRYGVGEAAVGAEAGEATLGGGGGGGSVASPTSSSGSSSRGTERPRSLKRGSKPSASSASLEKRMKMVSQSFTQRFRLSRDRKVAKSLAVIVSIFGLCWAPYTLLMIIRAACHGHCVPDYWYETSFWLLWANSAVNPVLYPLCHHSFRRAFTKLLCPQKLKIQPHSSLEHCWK

For the compound `C[C@@H]1CCCN1CCCOc1ccc(C(=O)CN2CCN(S(C)(=O)=O)CC2)cc1` [Example 66, 2-(4-Methanesulfonyl-piperazin-1-yl)-1-{4-[3-((R)-2-methyl-pyrrolidin-1-yl)-propoxy]-phenyl}-ethanone], the melting point (in general, the temperature of the solid-liquid transition) fell in the range of 120 to 126 °C. Further, the Ki (in general, a measure of affinity in units of concentration, obtained from inhibition or displacement) at human H3 receptor fell in the range of 0.1 to 100 nM. Further, the Ki in data set [1] (setting [2]) lay in the range of 0.1 to 100 nM.
In turn, `CC(C(=O)c1ccc(OCCCN2CCC[C@H]2C)cc1)N1CCOCC1` (stereo partly drawn) [Example 37, 1-{4-[3-((R)-2-Methyl-pyrrolidin-1-yl)-propoxy]-phenyl}-2-morpholin-4-yl-propan-1-one] came in with a melting point of 231 °C. In addition, the Ki at human H3 receptor lay in the range of 0.1 to 100 nM. The Ki in data set [1] was 101 to 500 nM.
Take `COC[C@@H]1CCCN1CCCOc1ccc(C(=O)CN2CCOCC2)cc1` [Example 76, 1-{4-[3-((S)-2-Methoxymethyl-pyrrolidin-1-yl)-propoxy]-phenyl}-2-morpholin-4-yl-ethanone]: the melting point is 74 to 76 °C. This compound returned a Ki at human H3 receptor of over 1000 nM. The Ki in data set [1] (setting [2]) is over 1000 nM.
As for `CC(C)C(=O)N1CCN(CC(=O)c2ccc(OCCCN3CCC[C@H]3C)c(F)c2)CC1` [Example 121, 1-[4-(2-{3-Fluoro-4-[3-((R)-2-methyl-pyrrolidin-1-yl)-propoxy]-phenyl}-2-oxoethyl)-piperazin-1-yl]-2-methyl-propan-1-one], the melting point was found to be 75 °C. For the same compound, the Ki at human H3 receptor lay within 0.1 to 100 nM. In addition, the Ki in data set [1] (setting [2]) was in the range of 0.1 to 100 nM.
Turning to `C[C@@H]1CCCN1CCCOc1ccc(C(=O)CN2CCN(C(=O)c3cc4ccccc4s3)CC2)cc1` [Example 124, 2-[4-(Benzo[b]thiophene-2-carbonyl)-piperazin-1-yl]-1-{4-[3-((R)-2-methyl-pyrrolidin-1-yl)-propoxy]-phenyl}-ethanone], the melting point lay within 214 to 217 °C. The same compound displayed a Ki on human H3 receptor of 0.1 to 100 nM. For the same compound, the Ki in data set [1] (setting [2]) is 0.1 to 100 nM.
Turning to `C[C@@H]1CCCN1CCCOc1ccc(C(=O)CN2CCN(c3ccc(F)cc3)CC2)cc1` [Example 94, 2-[4-(4-Fluoro-phenyl)-piperazin-1-yl]-1-{4-[3-((R)-2-methyl-pyrrolidin-1-yl)-propoxy]-phenyl}-ethanone], the melting point lay in the range of 140 to 145 °C. For the same compound, the Ki at human H3 receptor fell in the range of 0.1 to 100 nM. The Ki in data set [1] (setting [2]) fell in the range of 0.1 to 100 nM.
Consider `C[C@@H]1CCCN1CCCOc1c(Cl)cc(C(=O)CN2CCN(c3ccccc3)CC2)cc1Cl` [Example 102], for which the melting point amounted to 168 °C. Also, at human H3 receptor, the Ki was 101 to 500 nM. For the same compound, the Ki in data set [1] (setting [2]) was over 1000 nM.
The compound `C[C@@H]1CCCN1CCCOc1ccc(C(=O)CN2CCN(C(=O)N(C)C)CC2)cc1` [Example 79, 4-(2-{4-[3-((R)-2-Methyl-pyrrolidin-1-yl)-propoxy]-phenyl}-2-oxo-ethyl)-piperazine-1-carboxylic acid dimethylamide] gave a melting point of 120 to 126 °C. The Ki on human H3 receptor was in the range of 0.1 to 100 nM. Also, the Ki in data set [1] (setting [2]) fell in the range of 0.1 to 100 nM.
As to `C[C@@H]1CCCN1CCCOc1ccc(C(=O)CN2CCN(C(=O)C3CC3)CC2)cc1` [Example 89, 2-(4-Cyclopropanecarbonyl-piperazin-1-yl)-1-{4-[3-((R)-2-methyl-pyrrolidin-1-yl)-propoxy]-phenyl}-ethanone], the melting point is 202 to 204 °C. Besides, the Ki at human H3 receptor fell in the range of 0.1 to 100 nM. The Ki in data set [1] (setting [2]) lay within 0.1 to 100 nM.
Regarding `C[C@@H]1CCCN1CCCOc1ccc(C(=O)CN2CCN(C(=O)c3ccc4ccccc4c3)CC2)cc1` [Example 109, 1-{4-(3-((R)-2-Methyl-pyrrolidin-1-yl)-propoxy]-phenyl}-2-[4-(naphthalene-2-carbonyl)-piperazin-1-yl]-ethanone], the melting point lay within 100.5 to 109.5 °C. Further, the Ki on human H3 receptor lay in the range of 0.1 to 100 nM. The Ki in data set [1] (setting [2]) lay within 0.1 to 100 nM.
Compound `C[C@@H]1CCCN1CCCOc1ccc(C(=O)CN2CCN(C(=O)OC(C)(C)C)CC2)cc1` [Example 117, 4-(2-{4-[3-((R)-2-Methyl-pyrrolidin-1-yl)-propoxy]-phenyl}-2-oxo-ethyl)-piperazine-1-carboxylic acid tert-butyl ester] displayed a melting point of 198 to 199 °C. For the same compound, the Ki at human H3 receptor is 0.1 to 100 nM. Also, in data set [1] (setting [2]), the Ki was 0.1 to 100 nM.
As to `Cc1cc(C(=O)CN2CCN(c3ncccn3)CC2)cc(C)c1OCCCN1CCC[C@H]1C` [Example 104, 1-{3,5-Dimethyl-4-[3-((R)-2-methyl-pyrrolidin-1-yl)-propoxy]-phenyl}-2-(4-pyrimidin-2-yl-piperazin-1-yl)-ethanone], the melting point was 155 to 160 °C (dec.). The compound also came in with a Ki on human H3 receptor of 101 to 500 nM. For the same compound, the Ki in data set [1] (setting [2]) was 501 to 1000 nM.
On the same counts, the results for `O=C(CN1CCC(F)(F)CC1)c1ccc(OCCCN2CCCCC2)c(Cl)c1` [Example 147, 1-[3-Chloro-4-(3-piperidin-1-yl-propoxy)-phenyl]-2-(4,4-difluoro-piperidin-1-yl)-ethanone] are 122 to 135 °C, 101 to 500 nM and over 1000 nM.
Compound `C[C@@H]1CCCN1CCCOc1c(Cl)cc(C(=O)CN2CCN(c3ncccn3)CC2)cc1Cl` [Example 111, 1-{3,5-Dichloro-4-[3-((R)-2-methyl-pyrrolidin-1-yl)-propoxy]-phenyl}-2-(4-pyrimidin-2-yl-piperazin-1-yl)-ethanone] showed a melting point of 177 °C. This compound had a Ki on human H3 receptor of 0.1 to 100 nM. In addition, in data set [1] (setting [2]), the Ki was 101 to 500 nM.
Compound `O=C(CN1CCOCC1)c1ccc(OCCCN2CCN3CCCCC3C2)cc1` (stereo not drawn) [Example 62, 2-Morpholin-4-yl-1-{4-[3-(octahydro-pyrido[1,2-a]pyrazin-2-yl)-propoxy]-phenyl}-ethanone] yielded a melting point of 251 °C. Also, on human H3 receptor, the Ki fell in the range of 501 to 1000 nM. The Ki in data set [1] (setting [2]) was over 1000 nM.
Take `Cc1cc(OCCCN2CCCCC2)ccc1C(=O)CN1CCOCC1` [Example 72, 1-[2-Methyl-4-(3-piperidin-1-yl-propoxy)-phenyl]-2-morpholin-4-yl-ethanone]: the melting point was in the range of 206 to 215 °C. Besides, the Ki at human H3 receptor was in the range of 0.1 to 100 nM. For the same compound, the Ki in data set [1] (setting [2]) was 101 to 500 nM.
For `CC(C)C(=O)N1CCN(CC(=O)c2ccc(OCCCN3CCC[C@H]3C)cc2)CC1` [Example 77, 2-Methyl-1-[4-(2-{4-[3-((R)-2-methyl-pyrrolidin-1-yl)-propoxy]-phenyl}-2-oxo-ethyl)-piperazin-1-yl]-propan-1-one], the melting point was in the range of 220 to 226 °C. This compound also gave a Ki at human H3 receptor of 0.1 to 100 nM. For the same compound, the Ki in data set [1] (setting [2]) lay in the range of 0.1 to 100 nM.
`C[C@@H]1CCCN1CCCOc1ccc(C(=O)CN2CCN(c3ncccn3)CC2)cc1Cl` [Example 125, 1-{3-Chloro-4-[3-((R)-2-methyl-pyrrolidin-1-yl)-propoxy]-phenyl}-2-(4-pyrimidin-2-yl-piperazin-1-yl)-ethanone] returned a melting point of 112 to 114 °C. The compound also came in with a Ki on human H3 receptor of 0.1 to 100 nM. Besides, the Ki in data set [1] (setting [2]) fell in the range of 101 to 500 nM.
On the same counts, the results for `C[C@@H]1CCCN1CCCOc1ccc(C(=O)CN2CCN(C(=O)c3ccco3)CC2)cc1` [Example 81, 2-[4-(Furan-2-carbonyl)-piperazin-1-yl]-1-{4-[3-((R)-2-methyl-pyrrolidin-1-yl)-propoxy]-phenyl}-ethanone] are 130 to 135 °C, 0.1 to 100 nM and 0.1 to 100 nM.
As to `C[C@@H]1CCCN1CCCOc1ccc(C(=O)CN2CCN(c3ccccc3)CC2)cc1F` [Example 143, 1-{3-Fluoro-4-[3-((R)-2-methyl-pyrrolidin-1-yl)-propoxy]-phenyl}-2-(4-phenyl-piperazin-1-yl)-ethanone], the melting point was 140 °C. The compound also returned a Ki on human H3 receptor of 0.1 to 100 nM. The Ki in data set [1] (setting [2]) is 0.1 to 100 nM.
Compound `C[C@@H]1CCCN1CCCOc1ccc(C(=O)CN2CCN(C(=O)c3ccc4ccccc4n3)CC2)cc1` [Example 145, 1-{4-[3-((R)-2-Methyl-pyrrolidin-1-yl)-propoxy]-phenyl}-2-[4-(quinoline-2-carbonyl)-piperazin-1-yl]-ethanone] yielded a melting point of 115.4 to 120 °C. At human H3 receptor, this compound registered a Ki of 0.1 to 100 nM. For the same compound, in data set [1] (setting [2]), the Ki was in the range of 0.1 to 100 nM.
Turning to `C[C@@H]1CCCN1CCCOc1ccc(C(=O)CN2CCNC(=O)C2)cc1` [Example 85, 4-(2-{4-[3-((R)-2-Methyl-pyrrolidin-1-yl)-propoxy]-phenyl}-2-oxo-ethyl)-piperazin-2-one], the melting point is 137 to 145 °C. The Ki at human H3 receptor was in the range of 0.1 to 100 nM. Besides, in data set [1] (setting [2]), the Ki was 0.1 to 100 nM.
The compound `Cc1cc(C(=O)CN2CCC(F)(F)CC2)cc(C)c1OCCCN1CCC[C@H]1C` [Example 95, 2-(4,4-Difluoro-piperidin-1-yl)-1-{3,5-dimethyl-4-[3-((R)-2-methyl-pyrrolidin-1-yl)-propoxy]-phenyl}-ethanone] returned a melting point of 140 to 142 °C. Also, at human H3 receptor, the Ki was 101 to 500 nM. For the same compound, the Ki in data set [1] (setting [2]) is over 1000 nM.
Turning to `C[C@@H]1CCCN1CCCOc1cccc(C(=O)CN2CCC(F)(F)CC2)c1` [Example 154, 2-(4,4-Difluoro-piperidin-1-yl)-1-{3-[3-((R)-2-methyl-pyrrolidin-1-yl)-propoxy]-phenyl}-ethanone], the melting point is 110 to 120 °C. This compound returned a Ki on human H3 receptor of 0.1 to 100 nM. The Ki in data set [1] (setting [2]) lay within 101 to 500 nM.
Regarding `O=C(CN1CCOCC1)c1ccc(OCCCN2CCCCC2)cc1F` [Example 65, 1-[2-Fluoro-4-(3-piperidin-1-yl-propoxy)-phenyl]-2-morpholin-4-yl-ethanone], the melting point fell in the range of 170 to 172 °C. This compound came in with a Ki at human H3 receptor of 101 to 500 nM. Also, in data set [1] (setting [2]), the Ki was over 1000 nM.
